{"source": "paper PMC6640857", "about": "(Tetrahedron, 2019)", "origin": "cited, not measured here", "settings": "relative to vancomycin; cited from earlier work", "data": [{"substance": "chlorobiphenylmethyl (CBP-)vancomycin [compound 2]", "values": [{"measurement": "enhancement of antimicrobial potency by the CBP modification", "value": "≤ 100", "unit": "fold"}]}]}
